The supplement of paper PMC11208160

Legend:
[1] = recombinant barcode read abundance after kanamycin selection (control-corrected) (log10(CPM+1)); higher = more efficient recombination; sequences stand for … in AGTGCAGAGAAAATCGGCCAGTTTTCTCTGCCTGCAGTCCGCATGCCGT…AGATTTATGCAGCGGACTGCCTTTCTCCCAAAGTGATAAACCGGACAGTATCATGGACCGGTTTTCCCGGTAATCCGTATTTGCAAGGTTGGTTTCACT; site = the 11-nt target
Method: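 Pooled E. coli target-specificity screen for the IS621 bridge recombinase. Each library plasmid pairs an 11-nt target (CT core) with a bridge RNA whose target-binding loop (9-nt LTG + 4-nt RTG) is reprogrammed; the rest of the 177-nt WT IS621 bridge RNA scaffold is fixed. The plasmid is co-electroporated with a WT donor plasmid; recombinase is induced with 0.1 mM IPTG and recombinants are selected on kanamycin. Recombinant barcodes are sequenced, converted to CPM, averaged over two biological replicates and corrected by the unselected control CPM. Molecule = full bridge RNA written as DNA: LTG = specificity nt 1-9, RTG = reverse complement of specificity nt 8-11, in the WT scaffold.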

[2] = recombinant UMI read abundance after kanamycin selection (control-corrected) (log10(CPM+1)); higher = more efficient recombination; extreme values may be limits of the assay; sequences stand for … in AGTGCAGAGAAAATCGGCCAGTTTTCTCTGCCTGCAGTCCGCATGCCGTGGGACCCCTTGGGTTCTAACCTGTTGCCTAGATTTATGCAGCGGACTGCCTTTCTCCCAAAGTGATAAACCGG…AGGTTGGTTTCACT; site = the 11-nt donor
Procedure, shortened: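 Sequenced counts of recombinant UMIs were turned into CPM, averaged across replicates and scaled with control-derived factors. The reported figure is log10(CPM+1). Those UMIs, each 12 nt long, tagged donor and donor-binding-loop pairs on a plasmid with a promoterless kanamycin gene, screened as a pool in Escherichia coli with IPTG (0.07 mM) plus kanamycin or without selection.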
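Throughout, for recombinant UMI read abundance after kanamycin selection (control-corrected): IS621 bridge recombinase in Escherichia coli cells against a fixed T5 target plasmid.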
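Throughout, for recombinant barcode read abundance after kanamycin selection (control-corrected): IS621 recombinase and bridge RNA in Escherichia coli cells.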

AAAACTACTTGGGTTCTAACCTGTTGCCA (site AAAACTACTTG)
recombinant barcode read abundance (log10) [1]: 0.2

AAAACTACTTGGGTTCTAACCTGTTGCCA (site AATGCTACTTG)
recombinant barcode read abundance (log10) [1]: 0.15

AAAAGCCCTTGGGTTCTAACCTGTTGCCT (site AAAAGCCCTAG)
recombinant barcode read abundance (log10) [1]: 0.77

AAAAGCCCTTGGGTTCTAACCTGTTGCCT (site ACAAGCCCTAG)
recombinant barcode read abundance (log10) [1]: 0.154

AAAAGCCCTTGGGTTCTAACCTGTTGCCT (site AGAAGCCCTAG)
recombinant barcode read abundance (log10) [1]: 0.0771

AAAAGCCCTTGGGTTCTAACCTGTTGCCT (site ATAAGCCCTAG)
recombinant barcode read abundance (log10) [1]: 0.357

AAACGCTCTTGGGTTCTAACCTGTTGCCT (site AAACGCTCTAG)
recombinant barcode read abundance (log10) [1]: 1.75

AAACGCTCTTGGGTTCTAACCTGTTGCCT (site TAACGCTCTAG)
recombinant barcode read abundance (log10) [1]: 0.446

AAACTAACTTGGGTTCTAACCTGTTGCCT (site AAACTAACTAG)
recombinant barcode read abundance (log10) [1]: 1.31

AAACTAACTTGGGTTCTAACCTGTTGCCT (site ACACTAACTAG)
recombinant barcode read abundance (log10) [1]: 0.167

AAACTAACTTGGGTTCTAACCTGTTGCCT (site AGACTAACTAG)
recombinant barcode read abundance (log10) [1]: 0.0602

AAACTAACTTGGGTTCTAACCTGTTGCCT (site ATACTAACTAG)
recombinant barcode read abundance (log10) [1]: 0.073

AAACTTACTTGGGTTCTAACCTGTTGCCT (site AAACTTACTAG)
recombinant barcode read abundance (log10) [1]: 0.721

AAACTTACTTGGGTTCTAACCTGTTGCCT (site AGATTTACTAG)
recombinant barcode read abundance (log10) [1]: 0.0102

AAAGCTCCTTGGGTTCTAACCTGTTGCTT (site AAAGCTACTAG)
recombinant barcode read abundance (log10) [1]: 0.0734

AAAGCTCCTTGGGTTCTAACCTGTTGCTT (site AAAGCTCCTAA)
recombinant barcode read abundance (log10) [1]: 0.318

AAAGGGACTTGGGTTCTAACCTGTTGCCT (site AAAGGGACTAG)
recombinant barcode read abundance (log10) [1]: 2.08

AAAGGGACTTGGGTTCTAACCTGTTGCCT (site AAGGAGACTAG)
recombinant barcode read abundance (log10) [1]: 0.191

AAATCTGCTTGGGTTCTAACCTGTTGCCT (site AAATCTGCTAG)
recombinant barcode read abundance (log10) [1]: 0.122

AAATCTGCTTGGGTTCTAACCTGTTGCCT (site GGTGGGACTGT)
recombinant barcode read abundance (log10) [1]: 0.229

AACAAGCCTTGGGTTCTAACCTGTTGCTG (site AACAAGCCTCA)
recombinant barcode read abundance (log10) [1]: 0.896

AACAAGCCTTGGGTTCTAACCTGTTGCTG (site AACATGCCTAA)
recombinant barcode read abundance (log10) [1]: 0.0487

AACACGACTTGGGTTCTAACCTGTTGCTC (site AACACGACTGA)
recombinant barcode read abundance (log10) [1]: 0.171

AACACGACTTGGGTTCTAACCTGTTGCTC (site CCATATGCTAG)
recombinant barcode read abundance (log10) [1]: 0.235

TTGTTTGCATGGACCGGTTTTCCCGGTAATCCGTATTTGAG (site TTGTTTGCTCT)
recombinant UMI read abundance (log10) [2]: 0.442

TTTACACCATGGACCGGTTTTCCCGGTAATCCGTATTTGAC (site TATACACCTGT)
recombinant UMI read abundance (log10) [2]: 0

TTTACACCATGGACCGGTTTTCCCGGTAATCCGTATTTGAC (site TCTACACCTGT)
recombinant UMI read abundance (log10) [2]: 0

TTTACACCATGGACCGGTTTTCCCGGTAATCCGTATTTGAC (site TGTACACCTGT)
recombinant UMI read abundance (log10) [2]: 0

TTTACACCATGGACCGGTTTTCCCGGTAATCCGTATTTGAC (site TTTACACCTGT)
recombinant UMI read abundance (log10) [2]: 0

TTTACCCCATGGACCGGTTTTCCCGGTAATCCGTATTTGCT (site TTTACCCCTAG)
recombinant UMI read abundance (log10) [2]: 0.0114

TTTACGGCATGGACCGGTTTTCCCGGTAATCCGTATTTGCT (site TTTACGGCTAG)
recombinant UMI read abundance (log10) [2]: 0.234

TTTACGGCATGGACCGGTTTTCCCGGTAATCCGTATTTGCT (site TTTCCGGCTAG)
recombinant UMI read abundance (log10) [2]: 0.00939

TTTACGGCATGGACCGGTTTTCCCGGTAATCCGTATTTGCT (site TTTGCGGCTAG)
recombinant UMI read abundance (log10) [2]: 0.00519

TTTACGGCATGGACCGGTTTTCCCGGTAATCCGTATTTGCT (site TTTTCGGCTAG)
recombinant UMI read abundance (log10) [2]: 0.0523

TTTAGAACATGGACCGGTTTTCCCGGTAATCCGTATTTGGC (site ATTAGAACTGC)
recombinant UMI read abundance (log10) [2]: 0.0159

TTTAGAACATGGACCGGTTTTCCCGGTAATCCGTATTTGGC (site CTTAGAACTGC)
recombinant UMI read abundance (log10) [2]: 0

TTTAGAACATGGACCGGTTTTCCCGGTAATCCGTATTTGGC (site GTTAGAACTGC)
recombinant UMI read abundance (log10) [2]: 0

TTTAGAACATGGACCGGTTTTCCCGGTAATCCGTATTTGGC (site TTTAGAACTGC)
recombinant UMI read abundance (log10) [2]: 0

TTTAGAGCATGGACCGGTTTTCCCGGTAATCCGTATTTGTT (site TTTAGAGCTAA)
recombinant UMI read abundance (log10) [2]: 0.975

TTTAGCTCATGGACCGGTTTTCCCGGTAATCCGTATTTGTT (site TTTAGCTCTAA)
recombinant UMI read abundance (log10) [2]: 0.0116

TTTCAAACATGGACCGGTTTTCCCGGTAATCCGTATTTGTG (site TTTCAAACTCA)
recombinant UMI read abundance (log10) [2]: 0.0135

TTTCACCCATGGACCGGTTTTCCCGGTAATCCGTATTTGGG (site TTTCACCCTCC)
recombinant UMI read abundance (log10) [2]: 0.00832

TTTCACTCATGGACCGGTTTTCCCGGTAATCCGTATTTGGT (site TTTCACTCTAC)
recombinant UMI read abundance (log10) [2]: 0.00742

TTTCCGACATGGACCGGTTTTCCCGGTAATCCGTATTTGTA (site TTTCCGACTTA)
recombinant UMI read abundance (log10) [2]: 0.018

TTTCTACCATGGACCGGTTTTCCCGGTAATCCGTATTTGGG (site TTTCTACCTCC)
recombinant UMI read abundance (log10) [2]: 0.00805

TTTCTAGCATGGACCGGTTTTCCCGGTAATCCGTATTTGTA (site TTTCTAGCTTA)
recombinant UMI read abundance (log10) [2]: 0.542

TTTCTCTCATGGACCGGTTTTCCCGGTAATCCGTATTTGTA (site ATTCTCTCTTA)
recombinant UMI read abundance (log10) [2]: 0.353

TTTCTCTCATGGACCGGTTTTCCCGGTAATCCGTATTTGTA (site CTTCTCTCTTA)
recombinant UMI read abundance (log10) [2]: 0.301

TTTCTCTCATGGACCGGTTTTCCCGGTAATCCGTATTTGTA (site GTTCTCTCTTA)
recombinant UMI read abundance (log10) [2]: 0.297

TTTCTCTCATGGACCGGTTTTCCCGGTAATCCGTATTTGTA (site TTTCTCTCTTA)
recombinant UMI read abundance (log10) [2]: 0.571

TTTCTGACATGGACCGGTTTTCCCGGTAATCCGTATTTGCC (site TTTCTGACTGG)
recombinant UMI read abundance (log10) [2]: 0

TTTGAGACATGGACCGGTTTTCCCGGTAATCCGTATTTGGA (site TTTGAGACTTC)
recombinant UMI read abundance (log10) [2]: 0.832

TTTGCCGCATGGACCGGTTTTCCCGGTAATCCGTATTTGCT (site TTTGCAGCTAG)
recombinant UMI read abundance (log10) [2]: 0.0102

TTTGCCGCATGGACCGGTTTTCCCGGTAATCCGTATTTGCT (site TTTGCCGCTAG)
recombinant UMI read abundance (log10) [2]: 0.548

TTTGCCGCATGGACCGGTTTTCCCGGTAATCCGTATTTGCT (site TTTGCGGCTAG)
recombinant UMI read abundance (log10) [2]: 0.00684

TTTGCCGCATGGACCGGTTTTCCCGGTAATCCGTATTTGCT (site TTTGCTGCTAG)
recombinant UMI read abundance (log10) [2]: 0

TTTGGCGCATGGACCGGTTTTCCCGGTAATCCGTATTTGAG (site TTTGGCGCTCT)
recombinant UMI read abundance (log10) [2]: 0.115

TTTGGGGCATGGACCGGTTTTCCCGGTAATCCGTATTTGAC (site TTTGGGGCTGT)
recombinant UMI read abundance (log10) [2]: 1.57

TTTGTTACATGGACCGGTTTTCCCGGTAATCCGTATTTGCC (site TTTGTTACTGG)
recombinant UMI read abundance (log10) [2]: 0.44

TTTTTGGCATGGACCGGTTTTCCCGGTAATCCGTATTTGTG (site TATTTGGCTCA)
recombinant UMI read abundance (log10) [2]: 0.0105

TTTTTGGCATGGACCGGTTTTCCCGGTAATCCGTATTTGTG (site TCTTTGGCTCA)
recombinant UMI read abundance (log10) [2]: 0.0102

TTTTTGGCATGGACCGGTTTTCCCGGTAATCCGTATTTGTG (site TGTTTGGCTCA)
recombinant UMI read abundance (log10) [2]: 0.0296

TTTTTGGCATGGACCGGTTTTCCCGGTAATCCGTATTTGTG (site TTTTTGGCTCA)
recombinant UMI read abundance (log10) [2]: 0.00438
